# Reference: US20180116849A1, “SYSTEMS AND METHODS FOR DETERMINING FAILURE OF INTRAGASTRIC DEVICES” (Obalon Therapeutics, Inc., priority 2015, published 2018)
# “Also recorded” adds a separate entry of the source. Where a name gives a salt, the structure may show the parent alone.
# How the values were obtained:
# [1] = Colour, fluorescence or emission of the dye; type: physicochemical; details: dyes identified as indicator for balloon rupture
# Method: Experiments were conducted to identify appropriate dyes that may be incorporated into their gastric balloon device to function as an indicator for balloon rupture. The characteristics of the dyes considered for selection included the following: acceptable toxicology profile, acceptable solubility, intensely absorbing (high color intensity), stable in the gastric environment, and stable during excretion so as to be visually identified by the patient or a caregiver.
# rat = details: cited from earlier work
# mice = details: The Merck Index; cited from earlier work
# [2] = cited from earlier work; for Solubility in water: The Merck Index
# [3] = after the consumption of asparagus; cited from earlier work
# [4] = cited from earlier work; for Side-effect of turning urine a color: drugs that may be a source of false positives for balloon leakage; for Urine color produced: humans / patients exposed to the dye
# [5] = Tables 4 and 5; cited from earlier work
# [6] = The Merck Index; cited from earlier work
# [7] = Meng et al. 2013, cited from earlier work
# [8] = Tables 4 and 5; cited from earlier work; remark: listed apart in the source
# patients = details: The Merck Index; cited from earlier work
compound,measurement,setting,value
O=C(O)C1=C/C(=C/C=[N+]2/c3cc(O)c(OC4OC(CO)[C@@H](O)C(O)C4O)cc3CC2C(=O)[O-])CC(C(=O)O)N1 (stereo in doubt) [betanin],Emission colour of dye identified as suitable,[1],red emission
"CN(C)CCC=C1c2ccccc2CCc2ccccc21 [Amitriptyline Hydrochloride, reference compound]",LD50 (rats),"rat; rats, The Merck Index",380 mg/kg
same,LD50 (mice),mice,350 mg/kg
same,Solubility in chloroform (in words),"[2]; chloroform, salt",Salt is freely soluble
same,Solubility in water (in words),[2]; water,Salt is freely soluble
O=C(O)C1CSSC1 [Asparagusic Acid],Urine odor,[3],characteristic odor to urine
"Cc1cc2nc3c(=O)[nH]c(=O)nc-3n(C[C@H](O)[C@H](O)[C@H](O)CO)c2cc1C [B vitamins (e.g. Riboflavin), Riboflavin]",Solubility,[2]; water,Solubility: 1 g in 3 L g in 3 L water
COc1cccc2c1C(=O)c1c(O)c3c(c(O)c1C2=O)C[C@@](O)(C(C)=O)C[C@@H]3O[C@H]1C[C@H](N)[C@H](O)[C@H](C)O1 [Daunorubicin],Side-effect of turning urine a color,[4],red
CCN(Cc1cccc(S(=O)(=O)O)c1)c1ccc(C(=C2C=CC(=[N+](CC)Cc3cccc(S(=O)(=O)O)c3)C=C2)c2ccc(O)cc2S(=O)(=O)[O-])cc1 [Fast Green FCF],Emission colour of dye identified as suitable,[1],green emission
same,Toxicology (in words),[5],may cause eye injury
same,LD50 (rat),"rat; rat, in vivo",LD50 (rat) > 2 g/kg;
same,Solubility in alcohols (in words),[2]; alcohols,"Very soluble in water,"
same,Solubility in other organic solvents (in words),[2]; other organic solvents,"alcohols, insoluble in other"
same,Solubility in water (in words),[2]; water,"Very soluble in water,"
O=C1/C(=C2\Nc3ccc(S(=O)(=O)[O-])cc3C2=O)Nc2ccc(S(=O)(=O)[O-])cc21.[Na+].[Na+] [Indigo carmine],Emission colour of dye identified as suitable,[1],blue emission
same,"LD50 (rat, oral)","rat; rat, oral, Baker MSDS sheet",oral) = 2 g/kg (Baker
same,pH indicator-blue at pH,[6],pH indicator-blue at pH < 11
same,Solubility in water,[2],1.0 g per 100 mL of water
CN(C)c1ccc2c(c1)Sc1cc(N(C)C)ccc1N2 [Leukomethylene blue],Excretion in urine,[7]; urine,excreted mostly unaltered
Cc1cc2nc3[nH]c(=O)[nH]c(=O)c3nc2cc1C [Lumichrome],Urine color produced,[4],blue-green urine
same,Colour / fluorescence (Chemical Properties),[8],Blue fluorescence
same,Toxicology (in words),[5],None
same,"Solubility (in words, solvent not stated)",[2],poor solubility
same,Solubility in hot water (in words),[2]; hot water,Sparingly soluble in hot water
Cc1cc2nc3c(=O)[nH]c(=O)nc-3n(C)c2cc1C [Lumiflavine],Urine color produced,[4],blue-green urine
same,Colour / fluorescence (Chemical Properties),[8],Green fluorescence
same,Toxicology (in words),[5],None
same,"Solubility (in words, solvent not stated)",[2],poor solubility
same,Solubility in water (in words),[2]; water,Very sparingly soluble in
"COc1ccccc1OCC(O)COC(N)=O (stereo not drawn) [Methocarbamol, reference compound]",Toxicology: tolerability in patients,patients,Generally well-
same,Water soluble,[2]; @ 20 ° C.,Water soluble 2.5 g/ g/100 mL
COc1ccc2[nH]c([S+]([O-])Cc3ncc(C)c(OC)c3C)nc2c1 (stereo not drawn) [Omeprazole],Side-effect of turning urine a color,[4],blue green
O=C(O)c1cc(O)c2c(c1)[C@H]([C@H]1c3cc(C(=O)O)cc(O)c3C(=O)c3c(O[C@@H]4O[C@H](CO)[C@@H](O)[C@H](O)[C@H]4O)cccc31)c1cccc(O[C@@H]3O[C@H](CO)[C@@H](O)[C@H](O)[C@H]3O)c1C2=O [Sennoside A],Solubility in water (in words),[2]; water,insoluble in water.
O=C(O)c1cc(O)c2c(c1)[C@@H]([C@H]1c3cc(C(=O)O)cc(O)c3C(=O)c3c(O[C@@H]4O[C@H](CO)[C@@H](O)[C@H](O)[C@H]4O)cccc31)c1cccc(O[C@@H]3O[C@H](CO)[C@@H](O)[C@H](O)[C@H]3O)c1C2=O [Sennoside B],Solubility in water compared with Sennoside A,"[2]; water, Merck",Sennoside B is more
"Nc1nc(N)c2nc(-c3ccccc3)c(N)nc2n1 [Triamterene, reference compound]",Emission colour of dye identified as suitable,[1],blue emission
same,Toxicology: tolerability in patients,patients,Generally well-
same,Solubility in water,[2],1 part soluble in 1000 part soluble in 1000 parts water
CCC(=O)O[C@@H](O[P@](=O)(CCCCc1ccccc1)CC(=O)N1C[C@H](C2CCCCC2)C[C@H]1C(=O)O)C(C)C [fosinopril],Side-effect of turning urine a color,[4],blue green
CN(C)c1ccc2nc3ccc(N(C)C)cc3[s+]c2c1.[Cl-] [methylene blue],Urine color produced,[4],blue-green discoloration of their urine; also recorded: blue-green color
same,Conversion on passage through the gastrointestinal tract,[7]; gastrointestinal tract,reduced to leukomethylene blue
Nc1ccc(/N=N/c2ccccc2)c(N)n1 [phenazopyridine],Side-effect of turning urine a color,[4],red
CC[C@H](C)C(=O)O[C@H]1C[C@H](O)C=C2C=C[C@H](C)[C@H](CC[C@@H](O)C[C@@H](O)CC(=O)O)[C@H]21 [pravastatin],Side-effect of turning urine a color,[4],blue green
CC(C)c1cccc(C(C)C)c1O [propofol],Side-effect of turning urine a color,[4],green colored urine
CO[C@H]1/C=C/O[C@@]2(C)Oc3c(C)c(O)c4c(O)c(c(/C=N/N5CCN(C)CC5)c(O)c4c3C2=O)NC(=O)/C(C)=C\C=C\[C@H](C)[C@H](O)[C@@H](C)[C@@H](O)[C@@H](C)[C@H](OC(C)=O)[C@@H]1C [rifampin],Side-effect of turning urine a color,[4],red
Betalain [Betalain (including betanin)],Colour / fluorescence (Chemical Properties),[8],Colored Red
